This passage reports EC50 results from US20220162191A1, “SMALL MOLECULE MODULATORS OF IL-17” (LEO PHARMA A/S, priority 2019, published 2022).

Molecules are shown by their SMILES. Some results are limits rather than exact numbers.

What is called EC50 is the concentration giving half of the maximal effect.

The test addresses T1, human IL-17AA (Homo sapiens, UniProt Q16552).
T1 construct: host or cells: HEK (human embryonic kidney) cells
T1 sequence (Q16552 24-155) 1: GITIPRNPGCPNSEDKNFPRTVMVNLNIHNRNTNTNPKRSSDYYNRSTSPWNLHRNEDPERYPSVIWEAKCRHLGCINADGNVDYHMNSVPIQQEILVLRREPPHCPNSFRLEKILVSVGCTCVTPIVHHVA
T1 sequence (Q16552 24-155) 2: T1 sequence (Q16552 24-155) 1
The experiment in a line: IL-8 release assay in human epithelial keratinocytes adult (HEKa). Type of test: cell-based. The following applies: 3 ng/ml human IL-17AA + 10 ng/ml human TNFalpha, 68-72 h, IL-8 by HTRF, read-out: Rel EC50 L-8 release assay. The procedure, abridged:
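Adult human keratinocytes in Epilife with HKGS minus hydrocortisone, treated with compound then stimulated with final 3 ng/ml HEK-derived human IL-17AA plus 10 ng/ml TNF-alpha for 68–72 h at 37 °C; TNF-alpha alone defines 100% inhibition. Secreted IL-8 by HTRF; relative IC50 and Emax from four-parameter fits.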
`Cc1nocc1C(=O)N[C@@H](Cc1cc(-c2ccnc(C(O)C3CC3)c2)ccc1Cl)C(=O)Nc1ccc(-c2cncn2C)cc1` (stereo partly drawn) [Example 123, N-[(1S)-1-[[2-chloro-5-[2-[cyclopropyl(hydroxy)methyl]-4-pyridyl]phenyl]methyl]-2-[4-(3-methylimidazol-4-yl)anilino]-2-oxo-ethyl]-3-methyl-isoxazole-4-carboxamide]: the EC50 is < 100 nM.
The figure for `Cn1cncc1-c1ccc(NC(=O)[C@H](Cc2cc(-c3ccnc(C(O)C4CC4)c3)ccc2Cl)NC(=O)C2(F)CC2)cc1` (stereo partly drawn) [Example 124, N-[(1S)-1-[[2-chloro-5-[2-[cyclopropyl(hydroxy)methyl]-4-pyridyl]phenyl]methyl]-2-[4-(3-methylimidazol-4-yl)anilino]-2-oxo-ethyl]-1-fluoro-cyclopropanecarboxamide] is 100 to 1000 nM; for `Cc1nocc1C(=O)N[C@@H](Cc1cc(-c2ccnc(C(O)C3CC3)c2)ccc1Cl)C(=O)Nc1ccc(-n2ccnc2C)cc1` (stereo partly drawn) [Example 125, N-[(1S)-1-[[2-chloro-5-[2-[cyclopropyl(hydroxy)methyl]-4-pyridyl]phenyl]methyl]-2-[4-(2-methylimidazol-1-yl)anilino]-2-oxo-ethyl]-3-methyl-isoxazole-4-carboxamide] it is 100 to 1000 nM; for `Cc1nccn1-c1ccc(NC(=O)[C@H](Cc2cc(-c3ccnc(C(O)C4CC4)c3)ccc2Cl)NC(=O)C2(F)CC2)cc1` (stereo partly drawn) [Example 126, N-[(1S)-1-[[2-chloro-5-[2-[cyclopropyl(hydroxy)methyl]-4-pyridyl]phenyl]methyl]-2-[4-(2-methylimidazol-1-yl)anilino]-2-oxo-ethyl]-1-fluoro-cyclopropanecarboxamide] it is 100 to 1000 nM.
Consider `CC(C)n1cc(-c2ccc(Cl)c(C[C@H](NC(=O)CC3CCC3)C(=O)Nc3ccc(-c4nncn4C)cc3)c2)ccc1=O` [Example 127, (2S)-3-[2-chloro-5-(1-isopropyl-6-oxo-3-pyridyl)phenyl]-2-[(2-cyclobutylacetyl)amino]-N-[4-(4-methyl-1,2,4-triazol-3-yl)phenyl]propanamide], for which the EC50 is > 1000 nM.
The figure for `Cc1nocc1C(=O)N[C@@H](Cc1cc(-c2ccnc(C(C)(C)C)c2)ccc1Cl)C(=O)Nc1ccc(-c2nncn2C)cc1` [Example 128, N-[(1S)-1-[[5-(2-tert-butyl-4-pyridyl)-2-chloro-phenyl]methyl]-2-[4-(4-methyl-1,2,4-triazol-3-yl)anilino]-2-oxo-ethyl]-3-methyl-isoxazole-4-carboxamide] is 100 to 1000 nM; for `Cc1[nH]ncc1-c1ccc(NC(=O)C(Cc2cc(-c3ccc(=O)n(C(C)C)c3)ccc2Cl)NC(=O)C2(F)CC2)cc1` (centres unmarked) [Example 129, N-[1-[[2-chloro-5-(1-isopropyl-6-oxo-3-pyridyl)phenyl]methyl]-2-[4-(5-methyl-1H-pyrazol-4-yl)anilino]-2-oxo-ethyl]-1-fluoro-cyclopropanecarboxamide] it is 100 to 1000 nM; for `Cn1cnnc1-c1ccc(NC(=O)C(Cc2cc(-c3ccc(O)c(CN4CCOCC4)c3)ccc2Cl)NC(=O)c2ccnn2C)cc1` (centres unmarked) [Example 130, N-[1-[[2-chloro-5-[4-hydroxy-3-(morpholinomethyl)phenyl]phenyl]methyl]-2-[4-(4-methyl-1,2,4-triazol-3-yl)anilino]-2-oxo-ethyl]-2-methyl-pyrazole-3-carboxamide] it is 100 to 1000 nM.
For `CC(C)n1cc(-c2ccc(Cl)c(C[C@H](NC(=O)OC3CC3)C(=O)Nc3ccc(-c4nncn4C)cc3)c2)ccc1=O` [Example 131, cyclopropyl N-[(1S)-1-[[2-chloro-5-(1-isopropyl-6-oxo-3-pyridyl)phenyl]methyl]-2-[4-(4-methyl-1,2,4-triazol-3-yl)anilino]-2-oxo-ethyl]carbamate] the value was 100 to 1000 nM; for `Cc1nocc1C(=O)N[C@@H](Cc1cc(-c2ccc(=O)n(C(C)C)c2)ccc1Cl)C(=O)Nc1ccc(-c2cncn2C)c(O)c1` [Example 132, N-[(1S)-1-[[2-chloro-5-(1-isopropyl-6-oxo-3-pyridyl)phenyl]methyl]-2-[3-hydroxy-4-(3-methylimidazol-4-yl)anilino]-2-oxo-ethyl]-3-methyl-isoxazole-4-carboxamide], < 100 nM; for `CC(C)n1cc(-c2ccc(Cl)c(C[C@H](NC(=O)C3(F)CC3)C(=O)Nc3ccc(-c4cncn4C)c(O)c3)c2)ccc1=O` [Example 133, N-[(1S)-1-[[2-chloro-5-(1-isopropyl-6-oxo-3-pyridyl)phenyl]methyl]-2-[3-hydroxy-4-(3-methylimidazol-4-yl)anilino]-2-oxo-ethyl]-1-fluoro-cyclopropanecarboxamide], 100 to 1000 nM.
Take `CC(C)n1cc(-c2ccc(Cl)c(C[C@H](NC(=O)OC(C)(C)C)C(=O)Nc3ccc(-c4cncn4C)c(F)c3)c2)ccc1=O` [Example 134, tert-butyl N-[(1S)-1-[[2-chloro-5-(1-isopropyl-6-oxo-3-pyridyl)phenyl]methyl]-2-[3-fluoro-4-(3-methylimidazol-4-yl)anilino]-2-oxo-ethyl]carbamate]: the EC50 lay within 100 to 1000 nM.
Consider `CC(C)n1cc(-c2ccc(Cl)c(C[C@H](NC(=O)c3ccnn3C)C(=O)Nc3ccc(-c4cncn4C)c(F)c3)c2)ccc1=O` [Example 135, N-[(1S)-1-[[2-chloro-5-(1-isopropyl-6-oxo-3-pyridyl)phenyl]methyl]-2-[3-fluoro-4-(3-methylimidazol-4-yl)anilino]-2-oxo-ethyl]-2-methyl-pyrazole-3-carboxamide], for which the EC50 fell in the range of 100 to 1000 nM.
The figure for `Cc1n[nH]cc1-c1ccc(NC(=O)[C@H](Cc2cc(-c3ccc(=O)n(C(C)C)c3)ccc2Cl)NC(=O)C2(F)CC2)cc1` [Example 136, N-[(1S)-1-[[2-chloro-5-(1-isopropyl-6-oxo-3-pyridyl)phenyl]methyl]-2-[4-(3-methyl-1H-pyrazol-4-yl)anilino]-2-oxo-ethyl]-1-fluoro-cyclopropanecarboxamide] is 100 to 1000 nM; for `Cc1n[nH]c(C)c1-c1ccc(NC(=O)[C@H](Cc2cc(-c3ccc(=O)n(C(C)C)c3)ccc2Cl)NC(=O)C2(F)CC2)cc1` [Example 137, N-[(1S)-1-[[2-chloro-5-(1-isopropyl-6-oxo-3-pyridyl)phenyl]methyl]-2-[4-(3,5-dimethyl-1H-pyrazol-4-yl)anilino]-2-oxo-ethyl]-1-fluoro-cyclopropanecarboxamide] it is < 100 nM.
With `CC(C)n1cc(-c2ccc(Cl)c(C[C@H](NC(=O)c3ccnn3C)C(=O)Nc3ccc(-c4cn[nH]c4)c(F)c3)c2)ccc1=O` [Example 138, N-[(1S)-1-[[2-chloro-5-(1-isopropyl-6-oxo-3-pyridyl)phenyl]methyl]-2-[3-fluoro-4-(1H-pyrazol-4-yl)anilino]-2-oxo-ethyl]-2-methyl-pyrazole-3-carboxamide], the EC50 was in the range of 100 to 1000 nM.
Regarding `CN(C)Cc1cc(-c2ccc(Cl)c(CC(NC(=O)c3ccnn3C)C(=O)Nc3ccc(-c4nncn4C)cc3)c2)ccc1O` (centres unmarked) [Example 139, N-[1-[[2-chloro-5-[3-(dimethylaminomethyl)-4-hydroxy-phenyl]phenyl]methyl]-2-[4-(4-methyl-1,2,4-triazol-3-yl)anilino]-2-oxo-ethyl]-2-methyl-pyrazole-3-carboxamide], the EC50 was > 1000 nM.
Regarding `Cn1cncc1-c1ccc(NC(=O)[C@H](Cc2cc(-c3ccnc(C(O)C4CC4)c3)ccc2Cl)NC(=O)c2ccnn2C)cc1` (stereo partly drawn) [Example 140, N-[(1S)-1-[[2-chloro-5-[2-[cyclopropyl(hydroxy)methyl]-4-pyridyl]phenyl]methyl]-2-[4-(3-methylimidazol-4-yl)anilino]-2-oxo-ethyl]-2-methyl-pyrazole-3-carboxamide], the EC50 lay in the range of 100 to 1000 nM.
In the case of `Cn1cncc1-c1ccc(NC(=O)[C@H](Cc2cc(-c3ccnc(C(C)(O)C4CC4)c3)ccc2Cl)NC(=O)c2ccnn2C)cc1` (stereo partly drawn) [Example 141, N-[(1S)-1-[[2-chloro-5-[2-(1-cyclopropyl-1-hydroxy-ethyl)-4-pyridyl]phenyl]methyl]-2-[4-(3-methylimidazol-4-yl)anilino]-2-oxo-ethyl]-2-methyl-pyrazole-3-carboxamide], the EC50 was < 100 nM.
Regarding `Cn1cncc1-c1ccc(NC(=O)[C@H](Cc2cc(-c3ccnc(C(C)(O)C4CC4)c3)ccc2Cl)NC(=O)C2(F)CC2)cc1` (stereo partly drawn) [Example 142, N-[(1S)-1-[[2-chloro-5-[2-(1-cyclopropyl-1-hydroxy-ethyl)-4-pyridyl]phenyl]methyl]-2-[4-(3-methylimidazol-4-yl)anilino]-2-oxo-ethyl]-1-fluoro-cyclopropanecarboxamide], the EC50 is < 100 nM.
For `Cc1ncn(C)c1-c1ccc(NC(=O)[C@H](Cc2cc(-c3ccc(=O)n(C(C)C)c3)ccc2Cl)NC(=O)c2ccnn2C)cc1` [Example 143, N-[(1S)-1-[[2-chloro-5-(1-isopropyl-6-oxo-3-pyridyl)phenyl]methyl]-2-[4-(3,5-dimethylimidazol-4-yl)anilino]-2-oxo-ethyl]-2-methyl-pyrazole-3-carboxamide] the value was 100 to 1000 nM; for `Cn1cnnc1-c1ccc(NC(=O)C(Cc2cc(-c3cccc(C4(O)CCC4)c3)ccc2Cl)NC(=O)c2ccnn2C)cc1` (centres unmarked) [Example 144, N-[1-[[2-chloro-5-[3-(1-hydroxycyclobutyl)phenyl]phenyl]methyl]-2-[4-(4-methyl-1,2,4-triazol-3-yl)anilino]-2-oxo-ethyl]-2-methyl-pyrazole-3-carboxamide], 100 to 1000 nM.
As to `Cn1cnnc1-c1ccc(NC(=O)C(Cc2cc(-c3cccc(OC4CCC4)c3)ccc2Cl)NC(=O)c2ccnn2C)cc1` (centres unmarked) [Example 145, N-[1-[[2-chloro-5-[3-(cyclobutoxy)phenyl]phenyl]methyl]-2-[4-(4-methyl-1,2,4-triazol-3-yl)anilino]-2-oxo-ethyl]-2-methyl-pyrazole-3-carboxamide], the EC50 is 100 to 1000 nM.
